In ChEMBL document CHEMBL3616372, “A novel sesquiterpene and three new phenolic compounds from the rhizomes of Acorus tatarinowii Schott” (Bioorg Med Chem Lett, 2015):

Columns and labels:
Format in all cases: cell-based
[1] = molecular target: Sodium-dependent serotonin transporter (Homo sapiens) (UniProt P31645); assay: Inhibition of human SERT expressed in HEK293 cells using 4-[4-(Dimethylamino)phenyl]-1-methyl pyridinium as substrate assessed as fluorescent intensity at 1 uM after 3 hrs relative to control
Sodium-dependent serotonin transporter (Homo sapiens), sequence (P31645 whole entry, looked up): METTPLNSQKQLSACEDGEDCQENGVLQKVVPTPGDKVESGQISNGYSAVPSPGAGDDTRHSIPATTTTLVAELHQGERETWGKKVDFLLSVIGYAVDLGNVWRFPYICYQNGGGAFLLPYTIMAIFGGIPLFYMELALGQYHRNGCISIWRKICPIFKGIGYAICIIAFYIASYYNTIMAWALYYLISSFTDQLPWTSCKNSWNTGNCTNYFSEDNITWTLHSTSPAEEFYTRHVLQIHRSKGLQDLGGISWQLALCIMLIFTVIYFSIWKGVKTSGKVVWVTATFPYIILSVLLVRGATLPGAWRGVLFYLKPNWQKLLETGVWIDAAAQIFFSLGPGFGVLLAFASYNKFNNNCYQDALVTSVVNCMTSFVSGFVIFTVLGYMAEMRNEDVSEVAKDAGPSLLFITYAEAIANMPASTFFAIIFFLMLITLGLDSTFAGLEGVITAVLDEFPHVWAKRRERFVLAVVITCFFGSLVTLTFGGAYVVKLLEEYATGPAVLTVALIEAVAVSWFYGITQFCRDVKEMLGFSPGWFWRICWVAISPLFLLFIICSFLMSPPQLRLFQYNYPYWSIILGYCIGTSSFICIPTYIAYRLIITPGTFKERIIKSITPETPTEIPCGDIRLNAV

[2] = molecular target: Sodium-dependent serotonin transporter (Homo sapiens) (UniProt P31645); assay: Inhibition of human SERT expressed in HEK293 cells using 4-[4-(Dimethylamino)phenyl]-1-methyl pyridinium as substrate assessed as fluorescent intensity at 0.1 uM after 3 hrs relative to control
[3] = molecular target: Sodium-dependent serotonin transporter (Homo sapiens) (UniProt P31645); assay: Inhibition of human SERT expressed in HEK293 cells using 4-[4-(Dimethylamino)phenyl]-1-methyl pyridinium as substrate assessed as fluorescent intensity at 10 uM after 3 hrs relative to control

**Q.** Which RFU [1] does the source give for `CN1c2ccccc2C(NCCCCCCC(=O)O)c2ccc(Cl)cc2S1(=O)=O` (centres undefined) here?
**A.** Its RFU is 1.11.

**Q.** Which results are given for `COc1cc([C@@H]2Oc3c(OC)cc(C(=O)O)cc3[C@H]2CO)ccc1O`?
**A.** RFU [1]: 1.03; RFU [2]: 0.984; RFU [3]: 1.06

**Q.** Which RFU [1] does the source give for `CC(C)C[C@]12C[C@]3(O)O[C@@]1(OC(=O)C[C@H]2C)[C@H](O)[C@]3(C)O` here?
**A.** The RFU was 0.883.

**Q.** What about the RFU [2] of the same compound?
**A.** Its RFU is 0.858.

**Q.** What about the RFU [3] of the same compound?
**A.** The RFU was 0.928.

**Q.** For `COC(=O)CCCNC(=O)/C=C\c1ccc(O)c(OC)c1`, which RFU [1] is on record?
**A.** The RFU was 1.08.

**Q.** And the RFU [2]?
**A.** Its RFU is 1.04.

**Q.** And the RFU [3]?
**A.** Its RFU is 1.06.

**Q.** How did the RFU [1] turn out when `COc1cc(C[C@@H](CO)c2cc(C(=O)O)cc(OC)c2O)ccc1O` was run?
**A.** Its RFU is 0.997.

**Q.** And the RFU [2]?
**A.** The RFU was 1.01.

**Q.** What about the RFU [3] of the same compound?
**A.** Its RFU is 0.873.

**Q.** With `COc1cc([C@H]2Oc3c(OC)cc(C(=O)O)cc3[C@@H]2CO)ccc1O` as the compound, how does the RFU [1] read?
**A.** Its RFU is 1.01.

**Q.** And the RFU [2]?
**A.** The RFU was 1.04.

**Q.** And the RFU [3]?
**A.** The RFU was 1.09.

**Q.** How did the RFU [1] turn out when `COC(=O)CCCNC(=O)/C=C/c1ccc(O)c(OC)c1` was run?
**A.** Its RFU is 1.07.

**Q.** What about the RFU [2] of the same compound?
**A.** Its RFU is 1.02.

**Q.** And the RFU [3]?
**A.** The RFU was 1.04.
